Read-outs that look alike come from different tables or passages of the source. Each block holds one compound with its values, some of them ahead of it.
Experiments:
basophils [1] = system: basophils
basophilic cells = details: for MFI-CCR3 shift (cytotoxic concentration): human
Description: In Protocol 1 anti-IgE-FITC is used as the basophil selection marker, whereas in Protocol 2 anti-CCR3-PE is used.

basophils [2] = test: Alternative use of FcεRI instead of IgE as basophil selection/activation marker (Example 7); type: cell-based, human; details: for MFI Activation Index (anti-FcεRI-AF647 and anti-IgE-AF647): Amoxicillin allergic patient
blood basophils = details: 21 normal blood donors
Method: Therefore, we established two protocols, one with diluted whole blood, wherein the EDTA blood sample is diluted 1 in 4 with cellular incubation buffer (the Stimulation Buffer) and another with purified blood, wherein the basophils were transferred from its plasma matrix to a plasma-free matrix such as the cellular incubation buffer by centrifuging and washing the blood cells.

Compound: CC1(C)S[C@@H]2[C@H](NC(=O)[C@H](N)c3ccc(O)cc3)C(=O)N2[C@H]1C(=O)O [Amoxicillin]
result of all methods tested (CD63 expression, combined Activation Index, spIgE, skin test) (basophils [1]; Patient 4 (control subject)): negative result
combined MFI-IgE/CD63 Activation Index (basophils [1]; Patient 5): positive result
CD63 expression (basophils [1]; Patient 5, cutoff 5% plus SI≧2): negative
CCR3 positive cells after stimulation (basophilic cells; 2 mg/ml, CCR3 selection marker): can still be easily identified
IgE positive basophilic cells after stimulation (basophilic cells; 2 mg/ml, IgE selection marker): disappearing
MFI Activation Index (anti-FcεRI-AF647 and anti-IgE-AF647) (basophils [2]; 0.04 mg/ml (C3)): negative
MFI Activation Index (anti-FcεRI-AF647 and anti-IgE-AF647) (basophils [2]; 0.2 mg/ml (C2)): intermediate
MFI Activation Index (anti-FcεRI-AF647 and anti-IgE-AF647) (basophils [2]; 1 mg/ml (C1)): strong activation

Compound: CC(=O)Oc1ccccc1C(=O)O [Aspirin]
combined MFI-IgE/CD63 Activation Index (basophils [1]; Patient 8): positive results
CD63 expression (basophils [1]; Patient 9): clearcut reaction
combined MFI-IgE/CD63 Activation Index (basophils [1]; Patient 9): clearcut reaction
MFI-CCR3 shift (cytotoxic concentration) (basophilic cells; 5 mg/ml): clearcut downregulation of MFI-CCR3

Compound: O=C(O)Cc1ccccc1Nc1c(Cl)cccc1Cl [Diclofenac]
CD63 expression (basophils [1]; Patient 9): clearcut reaction
combined MFI-IgE/CD63 Activation Index (basophils [1]; Patient 9): clearcut reaction

Compound: CC(C)Cc1ccc(C(C)C(=O)O)cc1 (stereo not shown) [Ibuprofen]
combined MFI-IgE/CD63 Activation Index (basophils [1]; Patient 8): positive results
CD63 expression (basophils [1]; Patient 9): clearcut reaction
combined MFI-IgE/CD63 Activation Index (basophils [1]; Patient 9): clearcut reaction

unspecific stimulatory effects on basophils (blood basophils; 1 mg/ml, washed blood cells): unspecific stimulatory effects
Compound: COc1ccc2cc([C@H](C)C(=O)O)ccc2c1 [Naproxen]
cytotoxic effects on blood basophils (blood basophils; 5 mg/ml, all blood preparation methods): cytotoxic effects
MFI-CCR3 shift (cytotoxic concentration) (basophilic cells; 1 mg/ml): clearcut downregulation of MFI-CCR3
MFI-CCR3 shift (cytotoxic concentration) (basophilic cells; 5 mg/ml): clearcut downregulation of MFI-CCR3

Compound: CSCC[C@H](NC=O)C(=O)N[C@@H](CC(C)C)C(=O)N[C@@H](Cc1ccccc1)C(=O)O [fMLP, N-formyl-L-methionyl-L-leucyl-L-phenylalanine]
stimulation yield as alternative positive control (basophils [2]; compared with anti-FcεRI mAb): lower stimulation yields than anti-FcεRI mAb

From patent US8563258B2, “Allergy test based on flow cytometric analysis” (Buhlmann Laboratories AG, priority 2007, dated 2013)
